According to patent US20130143969A1 (THE OHIO STATE UNIVERSITY, priority 2010, published 2013):

Assays:
DNMT3b = experiment: Quantitative RT-PCR of DNMT3b mRNA in MV4-11 cells; type: cell-based; details: 10 μM
Experimental: (§1) Cell Cycle and Apoptosis Analysis: MV4-11, ML-1, HL-60 and K562 leukemia cell lines were cultured in RPMI medium (VWR International, Inc., West Chester, Pa.) supplemented with 10% fetal bovine serum (Invitrogen, Carlsbad, Calif.) and 1% (v/v) penicillin/streptomycin (Invitrogen Life Technologies; Carlsbad, Calif.) antibiotic solution at 37° C. in an incubator under 5% CO2 atmosphere. For the ex-vivo studies, mononuclear cells obtained from bone marrow (BM) of patient with AML were prepared by Ficoll-Hypaque (Nygaard) gradient centrifugation and cultured with serum-free expansion medium (SFEM) (StemCell technologies, Vancouver, BC) supplemented with GM-CSF (50 ng/ml), IL-3 (20 ng/ml), IL-6 (20 ng/ml) and SCF ([…]). […] The cell cycle and apoptosis of MV4-11 cells was analyzed on a BD FACS Calibur (Beckman Coulter, Fullerton, Calif.) according to the standard protocol provided by the manufacturer.
(§2) Quantitative RT-PCR was used to quantify the mRNA levels of DNMT1, DNMT3a, DNMT3b, p15INK4B and p21. […] Quantitative real-time PCR reactions were performed in triplicate using Taqman gene expression assay (Applied Biosystems) with an ABI prism 7700 detector (Applied Biosystems). The target gene values were normalized to the values of internal control GAPDH or 18 S, and expressed as relative percent change (100×2^(˜ΔΔCt)) over non-treated samples.

DNMT1 [1] = experiment: Quantitative RT-PCR of DNMT1 transcripts in MV4-11 cells; type: cell-based; set-up: dose or concentration left out as unconfirmed; details: curcumin
Experimental: as §1, §2

HL-60 cells = experiment: Cell viability / anti-proliferation; type: cell-based
DNMT1 [2] = experiment: DNMT1 mRNA and protein in MV4-11 engrafted tumor tissues; type: in vivo; details: MV4-11 engrafted mice, curcumin i.p. 100 mg/kg
Experimental: (§3) Cells or tumor tissues were homogenized and lysed in ice-cold lysis buffer (20 mM, pH 7.0 HEPES, 150 mM NaCl, 0.1% NP40 supplemented with 1 mM β-glycerophosphate, 1 mM Na3VO4, 1 mM NaF, 1 mM benzamide and 1 mM phenylmethylsulfonyl fluoride) with protease inhibitors (Protease Inhibitor cocktail Set III, Calbiochem-Novabiochem Corporation, La Jolla, Calif.), and incubated on ice for 20 mM. The lysate was centrifuged at 12,000 g for 10 mM at 4° C. Proteins in the supernatants were resolved on 4-15% SDS-polyacrylamide gradient gels, and then transferred onto nitrocellulose membranes, incubated with appropriate antibodies and subjected to Western blotting. The immunoblotted proteins were detected by ECL reagent (GE Healthcare Bio-Sciences Corp., Piscataway, N.J.).
Quantitative RT-PCR was used to quantify the mRNA levels of DNMT1, DNMT3a, DNMT3b, p15INK4B and p21. Total RNA was extracted with Trizol reagent (Invitrogen, Carlsbad, Calif.) and reverse transcribed by reverse transcriptase (Invitrogen). Quantitative real-time PCR reactions were performed in triplicate using Taqman gene expression assay (Applied Biosystems) with an ABI prism 7700 detector (Applied Biosystems). The target gene values were normalized to the values of internal control GAPDH or 18 S, and expressed as relative percent change (100×2^(˜ΔΔCt)) over non-treated samples. […]

[3] = system: p15^INK4B promoter region; experiment: DNA methylation analysis of the p15INK4B promoter region (LC-MS/MS); type: cell-based; details: MV4-11 cells, 10 μM curcumin, 72 hours
Experimental: Genomic DNA isolated from MV4-11 cells was treated with bisulfite using the Epi methylation Kit (Qiagen, Minneapolis, Minn.) according to the instruction from the manufacturer and followed by PCR amplification as follows. The sequences of p15^INK4B primers were: forward 5′-GGGAGGGTAATGAAGTTGAGTTTA-3′ (SEQ ID NO. 1), and reverse 5′-ACCCTAAAACCCCAACTACCTAAAT-3′ (SEQ ID NO. 2). PCR amplifications were performed as follows: 95° C. for 5.5 min, 55° C. for 30s for 5 cycles, and 52° C. for 30 s for 38 cycles, 72° C. for 30s for 38 cycles, with a final step at 72° C. for 1 min. PCRs were carried out in a 100 μl volume containing 10 μl of buffer (10×), 2 μL of each primer (10 μM), 2 μL of (10 mM) dNTPs, 2 U of Platinum Taq DNA polymerase (Invitrogen, Carlsbad, Calif.), 70.6 μL ddH2O and 10 μL of bisulfite treated DNA in a GeneAmp 9700 thermal cycler (Perkin-Elmer, Norwalk, Conn.). PCR products were purified using QIAquick columns and eluted in water. A 500 ng aliquot of the PCR product was incubated with 25 UM. […] Fully methylated PCR products were purified using the QIAquick PCR Purification kit (Qiagen, Minneapolis, Minn.), according to the manufacturer's instructions and 200 ng of the purified DNA was hydrolyzed and the concentrations of 5mdC and 2dC in the hydrolysate were measured by LC-MS/MS using the conditions as described previously.

DNMT1 [4] = experiment: Western blot of DNMT1 protein in leukemia cells; type: cell-based
Experimental: Cell Cycle and Apoptosis Analysis: MV4-11, ML-1, HL-60 and K562 leukemia cell lines were cultured in RPMI medium (VWR International, Inc., West Chester, Pa.) supplemented with 10% fetal bovine serum (Invitrogen, Carlsbad, Calif.) and 1% (v/v) penicillin/streptomycin (Invitrogen Life Technologies; Carlsbad, Calif.) antibiotic solution at 37° C. in an incubator under 5% CO2 atmosphere. […] The cell cycle and apoptosis of MV4-11 cells was analyzed on a BD FACS Calibur (Beckman Coulter, Fullerton, Calif.) according to the standard protocol provided by the manufacturer.
as §3, with “The lysate was centrifuged at 12,000 g for 10 mM at 4° C. Proteins in the supernatants were resolved on 4-15% SDS-polyacrylamide gradient gels, and then transferred onto nitrocellulose membranes, incubated with appropriate antibodies and subjected to Western blotting.” left out

[5] = Solubility of curcumin in different PEGs and temperatures; type: physicochemical
Experimental: The pharmaceutical compositions may be prepared by dissolving solid curcumin in an excipient. […] In one embodiment, the mixture is stirred at an elevated temperature until a homogenous solution is obtained. For example, the mixture may be heated to a temperature within the range from about 30° C. to about 150° C.; from about 50° C. to about 120° C.; from about 60° C. to about 100° C. […]

COc1cc(/C=C/C(=O)CC(=O)/C=C/c2ccc(O)c(OC)c2)ccc1O [curcumin]
DNMT3b mRNA level, % of the control (DNMT3b; 48 h): 40% | DNMT3b mRNA level, % of the control (DNMT3b; 72 h): 10% | decrease in the level of DNMT1 transcripts compared to untreated control (DNMT1 [1]; 48 hours): 70% | decrease in the level of DNMT1 transcripts compared to untreated control (DNMT1 [1]; 72 hours): 90% | cell viability decreased to (HL-60 cells; HL-60 cells (FIG. 13B)): 60-70% | IC50 (HL-60 cells; Homo sapiens, HL-60): 10 to 15 µM | mRNA level of DNMT1 in engrafted tissues (DNMT1 [2]): significantly decreases | protein level of DNMT1 in engrafted tissues, decrease (DNMT1 [2]): 50% | decrease of p15INK4B promoter methylation level [3]: about 40% | DNMT1 protein level decrease (DNMT1 [4]; ML-1 cells): 50% | DNMT1 protein level (DNMT1 [4]; MV4-11 cells, 10 μM): completely depleted | amount of curcumin that can dissolve ([5]; in 1 mL PEG 400 at 100° C): about 200 mg | Final Conc. 100° C. ([5]; solubility in PEG 200, 100° C): 193.1 mg/mL | Final Conc. 100° C. ([5]; solubility in PEG 300, 100° C): 252.3 mg/mL | Final Conc. 60° C. ([5]; solubility in PEG 400, 60° C): 131.4 mg/mL | Final Conc. 100° C. ([5]; solubility in PEG 400, 100° C): 195 mg/mL | Final Conc. @ RT ([5]; solubility in PEG 400, RT): 42.7 mg/mL | Final Conc. 100° C. ([5]; solubility in PEG 500, 100° C): 218.9 mg/mL | Final Conc. 60° C. ([5]; solubility in PEG 600, 60° C): 136.0 mg/mL | Final Conc. 100° C. ([5]; solubility in PEG 600, 100° C): 241.8 mg/mL | Final Conc. @ RT ([5]; solubility in PEG 600, RT): 42.0 mg/mL
